The values that follow are results of earlier work, collected in patent US20140206025A1, “Use Of Detection Of Aspartate Transaminase And Lactate Dehydrogenase In Early Evaluation Of Clinical Efficacy Of Antitumor Intervention Measure” (Beijing Sunbio Biotech Co., Ltd., priority 2011, published 2014).

This data set concerns tumor cells. The following applies: Cytokin & Growth Factor Reviews 14 (2003) 337-348.

For the substance “TRAIL/APO-2L: wild type Tumor necrosis factor-related apoptosis-inducing ligand, acts on Death Receptor 4 and/or 5”, the “induction of apoptosis of tumor cells” value is “selectively induces the apoptosis of multiple tumor cells” and the “toxic effect on normal cells” value is “no obvious toxic effect on normal cells”.
